{"source": "paper PMC6804253", "about": "“Predicting and Experimentally Validating Hot-Spot Residues at Protein–Protein Interfaces” (ACS Chemical Biology, 2019)", "key": {"[1]": {"tested_on": "PPIs of the SKEMPI data set (by PDBID)", "experiment": "SKEMPI experimental ΔΔG, single mutations to alanine", "format": "binding"}, "[2]": {"tested_on": "PPIs of the SKEMPI data set (by PDBID)", "conditions": "cited from earlier work"}, "[3]": {"tested_on": "PPIs of the SKEMPI data set (by PDBID)", "conditions": "Flex_ddG Talaris2014, 1 REU = 1 kcal/mol assumed; cited from earlier work"}, "[4]": {"tested_on": "PPIs of the SKEMPI data set (by PDBID)", "conditions": "Flex_ddG Ref2015, 1 REU = 1 kcal/mol assumed; cited from earlier work"}}, "data": [{"substance": "1A22 TA3A", "values": [{"measurement": "sk_class", "setting": "[1]; class of the SKEMPI experimental ΔΔG", "value": "Neutral (neutral (little effect) 4.184 kJ/mol < ΔΔG > −4.184 kJ/mol)"}, {"measurement": "sk_class", "setting": "[1]; class of the experimental SKEMPI ΔΔG", "value": "Neutral (neutral (little effect) 4.184 kJ/mol < ΔΔG > −4.184 kJ/mol)"}, {"measurement": "sk_ddG_kJ", "setting": "[2]; experimental ΔΔG of single mutation to alanine, SKEMPI database", "value": -0.0502, "unit": "kcal/mol"}, {"measurement": "sk_ddG_kJ (SKEMPI experimental ΔΔG)", "setting": "[2]; single mutation to alanine, complex given by PDBID, mutation by mut_pdb, ref SKEMPI", "value": -0.21, "unit": "kJ"}, {"measurement": "rosetta_ddG_kJ", "setting": "[3]", "value": -0.0406, "unit": "kcal/mol"}, {"measurement": "ref2015_ddG_kJ", "setting": "[4]", "value": 0.0717, "unit": "kcal/mol"}]}]}
